Test results published in ChEMBL document CHEMBL1155215, “Green chemoselective synthesis of thiazolo[3,2-a]pyridine derivatives and evaluation of their antioxidant and cytotoxic activities” (Bioorg Med Chem Lett, 2009).

Key:
HCT-116 = assay: Cytotoxicity against human HCT116 cells assessed as inhibition of cell proliferation at 1 mg/ml after 48 hrs by MTT assay; assay type: functional; conditions: HCT-116, 48 h
[1] = Cytotoxicity against C57BL/6 mouse spleen lymphocytes assessed as inhibition of cell proliferation at 1 mg/ml after 48 hrs by MTT assay; assay type: tissue-based, Lymphocyte
[2] = test system: Radical scavenging activity; assay: Antioxidant activity assessed as DPPH free radical scavenging activity at 1 mg assessed per mg; assay type: functional
[3] = Antioxidant activity assessed as hydroxyl free radical scavenging activity at 1 mg assessed per mg; assay type: functional

Compound `COc1ccc(C2C(C#N)=C(N)N3C(=O)CSC3=C2C#N)cc1` (centres undefined) has an inhibition at 1000 µg/mL (HCT-116) of 50.2%, an inhibition at 48 h, 1 mg/ml [1] of 70.6% and an inhibition [2] of 140%.
Work on `N#CC1=C(N)N2C(=O)CSC2=C(C#N)C1c1ccc(F)cc1` (centres undefined) yielded an inhibition at 1000 µg/mL (HCT-116) of 47.8% and an inhibition at 48 h, 1 mg/ml [1] of 66.9%.
`N#CC1=C(N)n2c(s/c(=C\c3ccc(Br)cc3)c2=O)=C(C#N)C1c1ccc(Br)cc1` (centres undefined) showed an inhibition at 1000 µg/mL (HCT-116) of 56.6%, an inhibition at 48 h, 1 mg/ml [1] of 71.3% and an inhibition [2] of 108%. The inhibition [3] was 125%.
In the case of `N#CC1=C(N)n2c(s/c(=C\c3cccs3)c2=O)=C(C#N)C1c1cccs1` (centres undefined), the inhibition at 1000 µg/mL (HCT-116) was 63.8% and the inhibition at 48 h, 1 mg/ml [1] was 55.4%.
Work on `N#CC1=C(N)n2c(s/c(=C\c3ccc(O)c([N+](=O)[O-])c3)c2=O)=C(C#N)C1c1ccc(O)c([N+](=O)[O-])c1` (centres undefined) yielded an inhibition at 1000 µg/mL (HCT-116) of 41.2%, an inhibition at 48 h, 1 mg/ml [1] of 5.31% and an inhibition [2] of 109%.
In the case of `N#CC1=C(N)N2C(=O)CSC2=C(C#N)C1c1ccc(Br)cc1` (centres undefined), the inhibition at 1000 µg/mL (HCT-116) was 43.5%, the inhibition at 48 h, 1 mg/ml [1] was 69.6% and the inhibition [2] was 67.7%.
`Cc1ccc(C2C(C#N)=C(N)N3C(=O)CSC3=C2C#N)cc1` (centres undefined) showed an inhibition at 1000 µg/mL (HCT-116) of 47.4% and an inhibition at 48 h, 1 mg/ml [1] of 63.8%.
`N#CC1=C(N)n2c(s/c(=C\c3ccc([N+](=O)[O-])cc3)c2=O)=C(C#N)C1c1ccc([N+](=O)[O-])cc1` (centres undefined) showed an inhibition at 1000 µg/mL (HCT-116) of 35.5% and an inhibition at 48 h, 1 mg/ml [1] of 51.7%.
`N#CC1=C(N)N2C(=O)CSC2=C(C#N)C1c1ccc(Cl)cc1Cl` (centres undefined) gave an inhibition at 1000 µg/mL (HCT-116) of 29.9% and an inhibition at 48 h, 1 mg/ml [1] of 55.4%.
In the case of `N#CC1=C(N)n2c(s/c(=C\c3cccc([N+](=O)[O-])c3)c2=O)=C(C#N)C1c1cccc([N+](=O)[O-])c1` (centres undefined), the inhibition at 1000 µg/mL (HCT-116) was 53%, the inhibition at 48 h, 1 mg/ml [1] was 60.4% and the inhibition [2] was 45.9%. It also gave an inhibition [3] of 56.8%.
With `O=C1O[C@H]([C@@H](O)CO)C(O)=C1O` the inhibition [3] was 109%.
For `N#CC1=C(N)N2C(=O)CSC2=C(C#N)C1c1ccc2c(c1)OCO2` (centres undefined), the inhibition at 1000 µg/mL (HCT-116) was 51.8% and the inhibition at 48 h, 1 mg/ml [1] was 62%.
With `N#CC1=C(N)N2C(=O)CSC2=C(C#N)C1c1ccccc1Cl` (centres undefined) the inhibition at 1000 µg/mL (HCT-116) was 54.1% and the inhibition at 48 h, 1 mg/ml [1] was 60.4%.
For `N#CC1=C(N)N2C(=O)CSC2=C(C#N)C1c1ccccc1` (centres undefined), the inhibition at 1000 µg/mL (HCT-116) was 50.8% and the inhibition at 48 h, 1 mg/ml [1] was 64.8%.
